Measurements reported in patent US11744844B2, “Selective estrogen receptor degraders” (Eli Lilly and Company, priority 2021, dated 2023).
Structures can show the parent of a compound that is named as a salt.

Biological target: T1, ERα (Homo sapiens, UniProt P03372)
T1 construct: measure the degradation of ERα by a test compound in an ERα positive breast cancer cell line such as MCF7; host or cells: MCF7
T1 sequence (P03372 1-595): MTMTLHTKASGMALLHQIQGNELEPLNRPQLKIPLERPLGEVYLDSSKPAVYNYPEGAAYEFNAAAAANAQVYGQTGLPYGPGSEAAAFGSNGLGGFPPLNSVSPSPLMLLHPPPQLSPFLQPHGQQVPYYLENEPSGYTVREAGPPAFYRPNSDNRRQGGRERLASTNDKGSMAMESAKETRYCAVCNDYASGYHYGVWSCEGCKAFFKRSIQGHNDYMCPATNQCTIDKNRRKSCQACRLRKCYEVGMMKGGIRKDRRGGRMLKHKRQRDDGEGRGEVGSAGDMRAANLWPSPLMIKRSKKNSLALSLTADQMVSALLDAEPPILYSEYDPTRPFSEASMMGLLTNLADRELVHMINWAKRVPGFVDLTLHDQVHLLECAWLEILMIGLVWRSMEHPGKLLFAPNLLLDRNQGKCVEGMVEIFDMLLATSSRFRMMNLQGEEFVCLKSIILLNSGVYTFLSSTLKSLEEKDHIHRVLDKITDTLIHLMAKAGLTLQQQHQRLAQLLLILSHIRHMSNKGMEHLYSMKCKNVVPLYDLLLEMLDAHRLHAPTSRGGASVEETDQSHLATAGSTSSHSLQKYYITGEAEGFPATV
Experiment: ERα degradation assay in MCF7 cells
Format: cell-based
Settings: 24 hours incubation, read-out: Relative IC50, ERα degradation (% ER positive cells)
Experimental: The purpose of the following ERα degradation assay is to measure the degradation of ERα by a test compound in an ERα positive breast cancer cell line such as MCF7.
Culture MCF7 (purchased from ATCC HTB-22) cells in DMEM media supplemented with 10% FBS, 0.01 mg/mL human insulin 1 and 1% penicillin/streptomycin antibiotics and plate in 384-well flat-bottom plates at a density of 4,000 cells per well in phenol red free DMEM media (20 μL) containing 10% charcoal stripped FBS. Incubate the cells overnight in a cell culture incubator (5% CO2, 95% relative humidity and 37° C.) and allow the cells to attach to the plate. The following day dose the cells with the test compound. Use an Echo 555 acoustic dispenser to prepare test compound serial dilutions (1:3) in a range from 6 μM to 0.0003 μM. Dose the cells with the addition of 5 μL from the serial dilution plate to the cell plate producing a final DMSO concentration of 0.2% with a final test compound concentration dose range between 2 and 0.0001 μM. For the maximum point, use media containing 0.2% of DMSO and for the minimum point, use fulvestrant diluted at 2 μM final concentrations in the growth media containing 0.2% DMSO. […] Scan the plates with ACUMEN EXPLORER™ (Laser-scanning fluorescence microplate cytometer manufactured by TTP LABTECH LTD) to measure ERα. […]

| DC50 [nM] | SMILES |
| --- | --- |
| 115 ± 18.4 | O=S(=O)(O)Oc1ccc2c3c(cnc2c1)-c1ccc(C(F)(F)F)cc1O[C@@H]3c1ccc(OCCN2CC(CF)C2)cc1 [Example 1, [(5R)-5-[4-[2-[3-(Fluoromethyl)azetidin-1-yl]ethoxy]phenyl]-8-(trifluoromethyl)-5H-chromeno[4,3-c]quinolin-2-yl]hydrogen sulfate] |
| 211 ± 69.2 | O=C(O)[C@H]1O[C@@H](Oc2ccc3c4c(cnc3c2)-c2ccc(C(F)(F)F)cc2O[C@@H]4c2ccc(OCCN3CC(CF)C3)cc2)[C@H](O)[C@@H](O)[C@@H]1O [Example 2, (2S,3S,4S,5R,6S)-6-[[(5R)-5-[4-[2-[3-(Fluoromethyl)azetidin-1-yl]ethoxy]phenyl]-8-(trifluoromethyl)-5H-chromeno[4,3-c]quinolin-2-yl]oxy]-3,4,5-trihydroxy-tetrahydropyran-2-carboxylic acid] |
